Results reported in ChEMBL document CHEMBL1201862, “PubChem BioAssay data set” (2004).
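Results reflect a 48-hour exposure of cells in 96-well plates to compound at five concentrations. Abbreviation: GI50, concentration required for 50% inhibition of growth.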 The source made the active and inactive calls. No stated cut-off is given here; in the data, active = GI50 up to about 1.1 µM and inactive = higher.

Experiments:
Assay in all cases: NCI anticancer screen, dose series, 48 h
A498 = tested on: A498
A549 = tested on: A549
ACHN = tested on: ACHN
CAKI-1 = tested on: CAKI-1
CCRF-CEM = tested on: CCRF-CEM
COLO 205 = tested on: COLO 205
DLD-1 = tested on: DLD-1
DMS-114 = tested on: DMS-114
DMS-273 = tested on: DMS-273
EKVX = tested on: EKVX
HCT-116 = tested on: HCT-116
HCT-15 = tested on: HCT-15
HL-60 = tested on: HL-60
HOP-62 = tested on: HOP-62
HOP-92 = tested on: HOP-92
HT-29 = tested on: HT-29
IGROV-1 = tested on: IGROV-1
K562 = tested on: K562
KM12 = tested on: KM12
LOX IMVI = tested on: LOX IMVI
LXFL 529 = tested on: LXFL 529
M14 = tested on: M14
M19-MEL = tested on: M19-MEL
MOLT-4 = tested on: MOLT-4
Malme-3M = tested on: Malme-3M
NCI-H23 = tested on: NCI-H23
NCI-H460 = tested on: NCI-H460
NCI-H522 = tested on: NCI-H522
OVCAR-3 = tested on: OVCAR-3
OVCAR-4 = tested on: OVCAR-4
OVCAR-5 = tested on: OVCAR-5
OVCAR-8 = tested on: OVCAR-8
RPMI-8226 = tested on: RPMI-8226
RXF 393 = tested on: RXF 393
RXF 631 = tested on: RXF 631
SF-268 = tested on: SF-268
SF-295 = tested on: SF-295
SF-539 = tested on: SF-539
SK-MEL-28 = tested on: SK-MEL-28
SK-MEL-2 = tested on: SK-MEL-2
SK-MEL-5 = tested on: SK-MEL-5
SK-OV-3 = tested on: SK-OV-3
SN12C = tested on: SN12C
SNB-19 = tested on: SNB-19
SNB-75 = tested on: SNB-75
SNB-78 = tested on: SNB-78
SW-620 = tested on: SW-620
TK-10 = tested on: TK-10
U-251 = tested on: U-251
UACC-257 = tested on: UACC-257
UACC-62 = tested on: UACC-62
UO-31 = tested on: UO-31
XF498 = tested on: XF498
786-0 = tested on: 786-0
HCC 2998 = tested on: HCC 2998
HOP-18 = tested on: HOP-18
KM-20L2 = tested on: KM-20L2
NCI-H226 = tested on: NCI-H226
SR = tested on: SR

Structure (SMILES): OC(c1ccccc1)C1CC2C=CC1C2 (stereo not given)
- GI50 (A498): > 100 µM (inactive)
- GI50 (A549): > 100 µM (inactive)
- GI50 (ACHN): > 100 µM (inactive)
- GI50 (CAKI-1): > 100 µM (inactive)
- GI50 (CCRF-CEM): > 100 µM (inactive)
- GI50 (COLO 205): > 100 µM (inactive)
- GI50 (DLD-1): > 100 µM (inactive)
- GI50 (DMS-114): > 100 µM (inactive)
- GI50 (DMS-273): > 100 µM (inactive)
- GI50 (EKVX): > 100 µM (inactive)
- GI50 (HCT-116): > 100 µM (inactive)
- GI50 (HCT-15): > 100 µM
- GI50 (HL-60): > 100 µM (inactive)
- GI50 (HOP-62): > 100 µM (inactive)
- GI50 (HOP-92): > 100 µM (inactive)
- GI50 (HT-29): > 100 µM (inactive)
- GI50 (IGROV-1): > 100 µM (inactive)
- GI50 (K562): > 100 µM (inactive)
- GI50 (KM12): > 100 µM (inactive)
- GI50 (LOX IMVI): > 100 µM (inactive)
- GI50 (LXFL 529): > 100 µM (inactive)
- GI50 (M14): > 100 µM (inactive)
- GI50 (M19-MEL): > 100 µM (inactive)
- GI50 (MOLT-4): > 100 µM (inactive)
- GI50 (Malme-3M): > 100 µM (inactive)
- GI50 (NCI-H23): > 100 µM (inactive)
- GI50 (NCI-H460): > 100 µM (inactive)
- GI50 (NCI-H522): > 100 µM (inactive)
- GI50 (OVCAR-3): > 100 µM (inactive)
- GI50 (OVCAR-4): > 100 µM (inactive)
- GI50 (OVCAR-5): > 100 µM (inactive)
- GI50 (OVCAR-8): > 100 µM (inactive)
- GI50 (RPMI-8226): > 100 µM (inactive)
- GI50 (RXF 393): > 100 µM (inactive)
- GI50 (RXF 631): > 100 µM (inactive)
- GI50 (SF-268): > 100 µM (inactive)
- GI50 (SF-295): > 100 µM (inactive)
- GI50 (SF-539): > 100 µM (inactive)
- GI50 (SK-MEL-28): > 100 µM (inactive)
- GI50 (SK-MEL-2): > 100 µM (inactive)
- GI50 (SK-MEL-5): > 100 µM (inactive)
- GI50 (SK-OV-3): > 100 µM (inactive)
- GI50 (SN12C): > 100 µM (inactive)
- GI50 (SNB-19): > 100 µM (inactive)
- GI50 (SNB-75): > 100 µM (inactive)
- GI50 (SNB-78): > 100 µM (inactive)
- GI50 (SW-620): > 100 µM (inactive)
- GI50 (TK-10): > 100 µM (inactive)
- GI50 (U-251): > 100 µM (inactive)
- GI50 (UACC-257): > 100 µM (inactive)
- GI50 (UACC-62): > 100 µM (inactive)
- GI50 (UO-31): > 100 µM (inactive)
- GI50 (XF498): > 100 µM (inactive)

Structure (SMILES): OC(CCNC12CC3CC(CC(C3)C1)C2)c1ccccc1 (stereo not given)
- GI50 (786-0): > 100 µM (inactive)
- GI50 (A498): > 100 µM (inactive)
- GI50 (A549): > 100 µM (inactive)
- GI50 (ACHN): > 100 µM (inactive)
- GI50 (CAKI-1): > 100 µM (inactive)
- GI50 (CCRF-CEM): 60.5 µM (inactive)
- GI50 (COLO 205): 51.8 µM (inactive)
- GI50 (DLD-1): 99.8 µM (inactive)
- GI50 (DMS-114): 57.9 µM (inactive)
- GI50 (DMS-273): 80.4 µM (inactive)
- GI50 (EKVX): > 100 µM (inactive)
- GI50 (HCC 2998): 68.7 µM (inactive)
- GI50 (HCT-116): 80.7 µM (inactive)
- GI50 (HCT-15): > 100 µM
- GI50 (HL-60): > 100 µM (inactive)
- GI50 (HOP-18): > 100 µM (inactive)
- GI50 (HOP-62): > 100 µM (inactive)
- GI50 (HOP-92): 78.3 µM (inactive)
- GI50 (HT-29): 35.3 µM (inactive)
- GI50 (IGROV-1): 72.1 µM (inactive)
- GI50 (KM-20L2): 49.3 µM (inactive)
- GI50 (KM12): 88.9 µM (inactive)
- GI50 (LXFL 529): > 100 µM (inactive)
- GI50 (M14): 40.4 µM (inactive)
- GI50 (M19-MEL): > 100 µM (inactive)
- GI50 (MOLT-4): > 100 µM (inactive)
- GI50 (Malme-3M): > 100 µM (inactive)
- GI50 (NCI-H226): > 100 µM (inactive)
- GI50 (NCI-H23): > 100 µM (inactive)
- GI50 (NCI-H460): > 100 µM (inactive)
- GI50 (NCI-H522): > 100 µM (inactive)
- GI50 (OVCAR-3): > 100 µM (inactive)
- GI50 (OVCAR-4): > 100 µM (inactive)
- GI50 (OVCAR-5): > 100 µM (inactive)
- GI50 (OVCAR-8): > 100 µM (inactive)
- GI50 (RXF 393): > 100 µM (inactive)
- GI50 (RXF 631): > 100 µM (inactive)
- GI50 (SF-268): > 100 µM (inactive)
- GI50 (SF-295): > 100 µM (inactive)
- GI50 (SF-539): > 100 µM (inactive)
- GI50 (SK-MEL-28): > 100 µM (inactive)
- GI50 (SK-MEL-2): > 100 µM (inactive)
- GI50 (SK-MEL-5): 43.7 µM (inactive)
- GI50 (SK-OV-3): > 100 µM (inactive)
- GI50 (SN12C): > 100 µM (inactive)
- GI50 (SNB-19): > 100 µM (inactive)
- GI50 (SNB-75): 75.7 µM (inactive)
- GI50 (SNB-78): > 100 µM (inactive)
- GI50 (SW-620): > 100 µM (inactive)
- GI50 (TK-10): > 100 µM (inactive)
- GI50 (U-251): > 100 µM (inactive)
- GI50 (UACC-257): > 100 µM (inactive)
- GI50 (UACC-62): > 100 µM (inactive)
- GI50 (UO-31): 43.9 µM (inactive)
- GI50 (XF498): > 100 µM (inactive)

Structure (SMILES): Cc1ccc(S(=O)(=O)N/N=c2\c(C)c(C3=NS(=O)(=O)c4cc(S(N)(=O)=O)c(Cl)cc4N3)oc3c(Cl)cc(Cl)cc23)cc1
- GI50 (786-0): > 100 µM (inactive)
- GI50 (A498): > 100 µM (inactive)
- GI50 (A549): > 100 µM (inactive)
- GI50 (ACHN): > 100 µM (inactive)
- GI50 (CAKI-1): > 100 µM (inactive)
- GI50 (CCRF-CEM): 32.2 µM (inactive)
- GI50 (COLO 205): 22.3 µM (inactive)
- GI50 (DLD-1): > 100 µM (inactive)
- GI50 (DMS-114): 26.9 µM (inactive)
- GI50 (DMS-273): 27 µM (inactive)
- GI50 (EKVX): > 100 µM (inactive)
- GI50 (HCC 2998): > 100 µM (inactive)
- GI50 (HCT-116): 65.5 µM (inactive)
- GI50 (HCT-15): 39.4 µM
- GI50 (HL-60): > 100 µM (inactive)
- GI50 (HOP-18): 45.3 µM (inactive)
- GI50 (HOP-62): > 100 µM (inactive)
- GI50 (HOP-92): 27.7 µM (inactive)
- GI50 (HT-29): 49.9 µM (inactive)
- GI50 (IGROV-1): > 100 µM (inactive)
- GI50 (K562): 61.1 µM (inactive)
- GI50 (KM-20L2): > 100 µM (inactive)
- GI50 (KM12): > 100 µM (inactive)
- GI50 (LOX IMVI): 86.5 µM (inactive)
- GI50 (LXFL 529): > 100 µM (inactive)
- GI50 (M14): > 100 µM (inactive)
- GI50 (M19-MEL): > 100 µM (inactive)
- GI50 (MOLT-4): > 100 µM (inactive)
- GI50 (Malme-3M): > 100 µM (inactive)
- GI50 (NCI-H226): > 100 µM (inactive)
- GI50 (NCI-H23): > 100 µM (inactive)
- GI50 (NCI-H460): 60.7 µM (inactive)
- GI50 (OVCAR-3): > 100 µM (inactive)
- GI50 (OVCAR-4): > 100 µM (inactive)
- GI50 (OVCAR-5): > 100 µM (inactive)
- GI50 (OVCAR-8): > 100 µM (inactive)
- GI50 (RPMI-8226): 36.9 µM (inactive)
- GI50 (RXF 393): 59.7 µM (inactive)
- GI50 (RXF 631): 79.1 µM (inactive)
- GI50 (SF-268): > 100 µM (inactive)
- GI50 (SF-295): > 100 µM (inactive)
- GI50 (SF-539): > 100 µM (inactive)
- GI50 (SK-MEL-28): > 100 µM (inactive)
- GI50 (SK-MEL-2): > 100 µM (inactive)
- GI50 (SK-MEL-5): > 100 µM (inactive)
- GI50 (SK-OV-3): > 100 µM (inactive)
- GI50 (SN12C): > 100 µM (inactive)
- GI50 (SNB-19): > 100 µM (inactive)
- GI50 (SNB-75): > 100 µM (inactive)
- GI50 (SNB-78): > 100 µM (inactive)
- GI50 (SR): > 100 µM (inactive)
- GI50 (SW-620): 6.87 µM (inactive)
- GI50 (TK-10): > 100 µM (inactive)
- GI50 (U-251): 23.5 µM (inactive)
- GI50 (UACC-257): > 100 µM (inactive)
- GI50 (UACC-62): > 100 µM (inactive)
- GI50 (UO-31): > 100 µM (inactive)
